Test results reported in PubChem BioAssay (NCI).
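Dose response: 5 concentrations. Exposure: 48 h. Format: 96-well plates. Endpoint: linear interpolation; highest concentration if not reached. GI50 is the concentration that inhibits growth by half. TGI is the concentration that stops growth completely.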

Columns and labels:
Test in all cases: inhibition of tumour cell growth, NCI panel, 48 h
CCRF-CEM leukemia = test system: CCRF-CEM leukemia
SW-620 colon = test system: SW-620 colon
KM12 colon = test system: KM12 colon
NCI-H522 lung = test system: NCI-H522 lung
SF-295 CNS = test system: SF-295 CNS
786-0 renal = test system: 786-0 renal
U251 CNS = test system: U251 CNS
RXF 393 renal = test system: RXF 393 renal
UACC-257 melanoma = test system: UACC-257 melanoma
SR leukemia = test system: SR leukemia

SMILES | TGI (CCRF-CEM leukemia) [µM] | TGI (SW-620 colon) [µM] | TGI (KM12 colon) [µM] | TGI (NCI-H522 lung) [µM] | TGI (SF-295 CNS) [µM] | TGI (786-0 renal) [µM] | TGI (U251 CNS) [µM] | TGI (RXF 393 renal) [µM] | TGI (UACC-257 melanoma) [µM] | GI50 (CCRF-CEM leukemia) [µM] | GI50 (SW-620 colon) [µM] | GI50 (KM12 colon) [µM] | GI50 (NCI-H522 lung) [µM] | GI50 (SF-295 CNS) [µM] | GI50 (786-0 renal) [µM] | GI50 (U251 CNS) [µM] | GI50 (RXF 393 renal) [µM] | GI50 (UACC-257 melanoma) [µM] | GI50 (SR leukemia) [µM] | TGI (SR leukemia) [µM]
COc1ccc2nc(-c3cccs3)cc(C(O)CN3CCSCC3)c2c1 (stereo unspecified) | 44.9 | 93.7 | 74.2 | 45.3 | > 100 | 46.2 | 50.2 | > 100 | 63.7 | – | – | – | – | – | – | – | – | – | – | –
C1C[OH+]CC[OH+]CCNCC[OH+]CC[OH+]CCN1.N.[Cl-].[Pt+4] | > 100 | > 100 | 48.7 | 48.1 | 19.7 | 39.2 | > 100 | 12.3 | 10.9 | 0.62 | 7.62 | 19 | 12.9 | 2.96 | 3.98 | 7.19 | 2.49 | 3.19 | – | –
Nc1ccccc1C#C/C=C\C#Cc1cccs1 | 2.2 | 33 | 25.6 | 31.6 | 46.1 | 35.1 | 27.5 | > 83.9 | > 57.8 | 0.295 | 14.4 | 5.66 | 6.84 | 11.3 | 13.5 | 8.34 | 33.8 | 23.2 | – | –
NCCOCCOCCNc1nc(Cc2ccccc2)nc(NCCCN2CCCC2=O)n1 | > 100 | > 100 | > 100 | – | > 100 | > 100 | > 100 | > 100 | > 100 | > 100 | > 100 | > 100 | – | > 100 | > 100 | > 100 | > 100 | > 100 | > 100 | > 100
C/C(=N\NS(=O)(=O)c1ccccc1)c1ccc(Cl)c(Cl)c1 | > 100 | > 100 | > 100 | – | > 100 | > 100 | > 100 | > 100 | > 100 | – | – | – | – | – | – | – | – | – | – | > 100
O=C(O)/C=C\C(=O)N1C/C(=C\c2ccccc2Cl)C(=O)/C(=C/c2ccccc2Cl)C1 | 6.66 | – | 3.12 | 4.1 | 16.5 | 4.06 | 1.88 | 3.36 | 20.4 | 1.43 | – | 1.6 | 1.96 | 4.4 | 2.18 | 0.472 | 1.84 | 6.44 | 0.632 | 13
COc1ccc(-c2nn3c(-c4cc(F)c(Cl)cc4Cl)nnc3s2)cc1 | > 100 | > 100 | > 100 | 73.1 | 65.3 | > 100 | 74.5 | 97.2 | > 100 | 28.8 | 24.6 | 26.3 | 17 | 16.2 | 33.4 | 24.6 | 28.7 | 32.2 | – | –
NC1C[C@H](n2cc(/C=C/Br)c(=O)[nH]c2=O)C[C@@H]1CO (stereo partly specified) | > 100 | – | – | > 100 | > 100 | > 100 | > 100 | > 100 | > 100 | – | – | – | – | – | – | – | – | – | – | –
CCOC(=O)COc1ccccc1/C=C1\CCC(CN(C)C)C1=O (stereo unspecified) | 8.42 | 6.64 | 13.3 | 6.01 | 35.5 | 11.7 | 14.8 | 7.94 | 16.3 | – | – | – | – | – | – | – | – | – | – | –
Nc1ccn(CCNCCn2cnc3nc(N)[nH]c(=O)c32)c(=O)n1 | – | > 100 | > 100 | > 100 | > 100 | > 100 | > 100 | > 100 | > 100 | – | – | – | – | – | – | – | – | – | – | > 100
COc1cc(/C=C/c2cc(O)c3cc(C(C)=O)c(=O)oc3c2)cc2c1O[C@]1(C)CC[C@@H](O)C(C)(C)[C@H]1C2 | > 29.4 | > 34.7 | > 39.3 | > 53 | – | > 25.3 | > 81.4 | – | > 30.5 | – | – | > 20.8 | > 25.9 | – | – | – | – | – | – | > 100
Cc1ccc(C(=O)c2nnc(C(=O)c3ccc(C)cc3)nn2)cc1 | 50.8 | 44.1 | > 100 | > 100 | > 100 | > 100 | > 100 | – | > 100 | – | – | – | – | – | – | – | – | – | – | 37.6
CN(C)CCCNC(CC#N)CCC#N (stereo unspecified) | > 10 | > 10 | > 10 | > 10 | > 10 | > 10 | > 10 | > 10 | > 10 | – | – | – | – | – | – | – | – | – | – | –
O=c1/c(=C/c2ccccc2F)sc2nc3ccccc3n12 | > 100 | > 100 | – | > 100 | > 100 | > 100 | > 100 | > 100 | > 100 | – | – | – | – | – | – | – | – | – | – | > 100
COc1ccc(-c2ccc(/C=N/n3c(COc4ccc(Cl)cc4Cl)nn(CN4CCOCC4)c3=S)o2)c([N+](=O)[O-])c1 | 43.8 | – | 32.6 | > 100 | 46.9 | > 100 | – | 88.9 | – | 16.2 | – | 16.7 | 45.1 | 17.4 | 32.5 | – | 24.3 | – | 27.7 | 68.4
CCOc1ccc(NC(=O)C(=O)CC(=O)C2=C(C)Nc3ccccc3S2)cc1 | > 50 | > 50 | > 50 | > 50 | > 50 | > 50 | > 50 | > 50 | > 50 | – | – | – | – | – | – | – | – | – | – | –
COc1ccc(-c2nc3sc4c(c3c(=O)[nH]2)CCCCCC4)cc1 | > 33.2 | > 33.2 | > 33.2 | > 33.2 | > 33.2 | > 33.2 | – | 10.4 | > 33.2 | > 33.2 | 1.81 | 1.18 | 2.55 | 0.989 | 8.08 | – | 1.62 | > 33.2 | 0.717 | > 33.2
